Data reported in US20260224588A1, “BENZODIAZEPINONE-DERIVED INHIBITORS OF EGFR AND HER2” (The Research Foundation for the State University of New York, priority 2023, published 2026).

Legend:
Type in all cases: binding
HIPK3 = target: T1, HIPK3 (Homo sapiens, UniProt Q9H422); assay: KINOMEscan; settings: 1 μM of compound 4; read-out: POC
T1 construct: purchased Eurofins DiscoverX Corporation

PFPK5(P. falciparum) = target: T2, PFPK5(P. falciparum) (Plasmodium falciparum, UniProt P61075); assay: KINOMEscan; settings: 1 μM of compound 4; read-out: POC
T2 construct: purchased Eurofins DiscoverX Corporation (KINOMEscan)

MYO3B = MYO3B (Homo sapiens, UniProt Q8WXR4); assay: KINOMEscan; settings: 1 μM of compound 4; read-out: POC
PYK2 = target: T3, PYK2 (Homo sapiens, UniProt Q14289); assay: KINOMEscan; settings: 1 μM of compound 4; read-out: POC
T3 construct: purchased Eurofins DiscoverX Corporation (KINOMEscan screening service)

FLT4 = target: T4, FLT4 (Homo sapiens, UniProt P35916); assay: KINOMEscan; settings: 1 μM of compound 4; read-out: POC
T4 construct: purchased Eurofins DiscoverX Corporation

ADCK3 = ADCK3 (Homo sapiens, UniProt Q8NI60); assay: KINOMEscan; settings: 1 μM of compound 4; read-out: POC
MST1R = MST1R (Homo sapiens, UniProt Q04912); assay: KINOMEscan; settings: 1 μM of compound 4; read-out: POC
MAP3K15 = MAP3K15 (Homo sapiens, UniProt Q6ZN16); assay: KINOMEscan; settings: 1 μM of compound 4; read-out: POC
CAMK1 = CAMK1 (Homo sapiens, UniProt Q14012); assay: KINOMEscan; settings: 1 μM of compound 4; read-out: POC
EPHA3 = target: T5, EPHA3 (Homo sapiens, UniProt P29320); assay: KINOMEscan; settings: 1 μM of compound 4; read-out: POC
T5 construct: purchased Eurofins DiscoverX (KINOMEscan service)

DYRK2 = DYRK2 (Homo sapiens, UniProt Q92630); assay: KINOMEscan; settings: 1 μM of compound 4; read-out: POC
TIE1 = target: T6, TIE1 (Homo sapiens, UniProt P35590); assay: KINOMEscan; settings: 1 μM of compound 4; read-out: POC
T6 construct: purchased Eurofins DiscoverX Corporation

ABL2 = target: T7, ABL2 (Homo sapiens, UniProt P42684); assay: KINOMEscan; settings: 1 μM of compound 4; read-out: POC
T7 construct: purchased Eurofins DiscoverX Corporation

CAMKK2 = CAMKK2 (Homo sapiens, UniProt Q96RR4); assay: KINOMEscan; settings: 1 μM of compound 4; read-out: POC
EGFR(G719S) = target: T8, EGFR(G719S) (Homo sapiens, UniProt P00533, G719S); assay: KINOMEscan; settings: 1 μM of compound 4; read-out: POC
T8 construct: purchased Eurofins DiscoverX (KINOMEscan service)

PLK1 = PLK1 (Homo sapiens, UniProt P53350); assay: KINOMEscan; settings: 1 μM of compound 4; read-out: POC
[1] = target: T9, RSK2(Kin.Dom.1-N-terminal) (Homo sapiens, UniProt P51812); assay: KINOMEscan; settings: 1 μM of compound 4; read-out: POC
T9 construct: RSK2(Kin.Dom.1-N-terminal); purchased Eurofins DiscoverX Corporation (KINOMEscan screening service)

MAP3K1 = MAP3K1 (Homo sapiens, UniProt Q13233); assay: KINOMEscan; settings: 1 μM of compound 4; read-out: POC
MST4 = MST4 (Homo sapiens, UniProt Q9P289); assay: KINOMEscan; settings: 1 μM of compound 4; read-out: POC
MARK1 = MARK1 (Homo sapiens, UniProt Q9P0L2); assay: KINOMEscan; settings: 1 μM of compound 4; read-out: POC
FGFR3(G697C) = target: T10, FGFR3(G697C) (Homo sapiens, UniProt P22607, G697C); assay: KINOMEscan; settings: 1 μM of compound 4; read-out: POC
T10 construct: purchased Eurofins DiscoverX Corporation

TNIK = target: T11, TNIK (Homo sapiens, UniProt Q9UKE5); assay: KINOMEscan; settings: 1 μM of compound 4; read-out: POC
T11 construct: purchased Eurofins DiscoverX Corporation

SLK = target: T12, SLK (Homo sapiens, UniProt Q9H2G2); assay: KINOMEscan; settings: 1 μM of compound 4; read-out: POC
T12 construct: purchased Eurofins DiscoverX (KINOMEscan service)

DLK = DLK (Homo sapiens, UniProt Q12852); assay: KINOMEscan; settings: 1 μM of compound 4; read-out: POC
468 kinases = assay: KINOMEscan selectivity screening; settings: 1 μM
MARK2 = MARK2 (Homo sapiens, UniProt Q7KZI7); assay: KINOMEscan; settings: 1 μM of compound 4; read-out: POC
[2] = target: T13, RPS6KA4(Kin.Dom.2-C-terminal) (Homo sapiens, UniProt O75676); assay: KINOMEscan; settings: 1 μM of compound 4; read-out: POC
T13 construct: RPS6KA4(Kin.Dom.2-C-terminal); purchased Eurofins DiscoverX Corporation (KINOMEscan screening service)

EPHB1 = target: T14, EPHB1 (Homo sapiens, UniProt P54762); assay: KINOMEscan; settings: 1 μM of compound 4; read-out: POC
T14 construct: purchased Eurofins DiscoverX (KINOMEscan service)

EPHB4 = target: T15, EPHB4 (Homo sapiens, UniProt P54760); assay: KINOMEscan; settings: 1 μM of compound 4; read-out: POC
T15 construct: purchased Eurofins DiscoverX (KINOMEscan service)

[3] = target: T16, RSK1(Kin.Dom.1-N-terminal) (Homo sapiens, UniProt Q15418); assay: KINOMEscan; settings: 1 μM of compound 4; read-out: POC
T16 construct: RSK1(Kin.Dom.1-N-terminal); purchased Eurofins DiscoverX Corporation (KINOMEscan screening service)

VRK2 = target: T17, VRK2 (Homo sapiens, UniProt Q86Y07); assay: KINOMEscan; settings: 1 μM of compound 4; read-out: POC
T17 construct: purchased Eurofins DiscoverX

VPS34 = target: T18, VPS34 (Homo sapiens, UniProt Q8NEB9); assay: KINOMEscan; settings: 1 μM of compound 4; read-out: POC
T18 construct: purchased Eurofins DiscoverX

SRMS = target: T19, SRMS (Homo sapiens, UniProt Q9H3Y6); assay: KINOMEscan; settings: 1 μM of compound 4; read-out: POC
T19 construct: purchased Eurofins DiscoverX (KINOMEscan service)

T12 sequence (Q9H2G2 whole entry): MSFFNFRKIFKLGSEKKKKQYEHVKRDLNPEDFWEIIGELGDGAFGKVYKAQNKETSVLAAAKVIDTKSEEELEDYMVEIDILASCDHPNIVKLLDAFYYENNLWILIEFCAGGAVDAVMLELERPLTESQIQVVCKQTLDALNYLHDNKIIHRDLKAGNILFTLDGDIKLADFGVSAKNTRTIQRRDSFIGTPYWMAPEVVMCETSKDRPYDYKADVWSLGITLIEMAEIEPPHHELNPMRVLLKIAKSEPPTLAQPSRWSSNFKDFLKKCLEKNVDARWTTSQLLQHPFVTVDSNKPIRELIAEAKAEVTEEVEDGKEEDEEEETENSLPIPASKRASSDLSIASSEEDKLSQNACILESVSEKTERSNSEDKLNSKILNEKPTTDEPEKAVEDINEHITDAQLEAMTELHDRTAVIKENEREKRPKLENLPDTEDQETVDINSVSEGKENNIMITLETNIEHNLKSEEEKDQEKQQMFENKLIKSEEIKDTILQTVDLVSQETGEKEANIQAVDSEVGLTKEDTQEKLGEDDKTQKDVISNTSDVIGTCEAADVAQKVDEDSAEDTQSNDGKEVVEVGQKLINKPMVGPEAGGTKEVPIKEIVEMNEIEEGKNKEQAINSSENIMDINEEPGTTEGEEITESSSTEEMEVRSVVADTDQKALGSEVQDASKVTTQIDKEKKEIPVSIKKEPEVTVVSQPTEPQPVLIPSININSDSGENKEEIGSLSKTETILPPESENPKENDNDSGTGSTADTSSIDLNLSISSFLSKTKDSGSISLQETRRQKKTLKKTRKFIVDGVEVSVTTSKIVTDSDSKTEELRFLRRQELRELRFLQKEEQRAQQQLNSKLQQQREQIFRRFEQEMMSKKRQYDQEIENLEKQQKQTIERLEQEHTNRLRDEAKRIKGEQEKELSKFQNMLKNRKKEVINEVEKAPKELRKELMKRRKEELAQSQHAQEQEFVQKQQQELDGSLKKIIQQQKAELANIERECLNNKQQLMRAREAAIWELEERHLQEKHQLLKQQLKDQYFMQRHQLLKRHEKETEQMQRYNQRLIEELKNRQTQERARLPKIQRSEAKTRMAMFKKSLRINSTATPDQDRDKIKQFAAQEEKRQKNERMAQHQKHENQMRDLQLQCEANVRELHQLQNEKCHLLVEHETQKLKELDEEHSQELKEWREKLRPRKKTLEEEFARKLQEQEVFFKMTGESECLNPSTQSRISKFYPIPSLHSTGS
T8 sequence (P00533 25-1210 G719S): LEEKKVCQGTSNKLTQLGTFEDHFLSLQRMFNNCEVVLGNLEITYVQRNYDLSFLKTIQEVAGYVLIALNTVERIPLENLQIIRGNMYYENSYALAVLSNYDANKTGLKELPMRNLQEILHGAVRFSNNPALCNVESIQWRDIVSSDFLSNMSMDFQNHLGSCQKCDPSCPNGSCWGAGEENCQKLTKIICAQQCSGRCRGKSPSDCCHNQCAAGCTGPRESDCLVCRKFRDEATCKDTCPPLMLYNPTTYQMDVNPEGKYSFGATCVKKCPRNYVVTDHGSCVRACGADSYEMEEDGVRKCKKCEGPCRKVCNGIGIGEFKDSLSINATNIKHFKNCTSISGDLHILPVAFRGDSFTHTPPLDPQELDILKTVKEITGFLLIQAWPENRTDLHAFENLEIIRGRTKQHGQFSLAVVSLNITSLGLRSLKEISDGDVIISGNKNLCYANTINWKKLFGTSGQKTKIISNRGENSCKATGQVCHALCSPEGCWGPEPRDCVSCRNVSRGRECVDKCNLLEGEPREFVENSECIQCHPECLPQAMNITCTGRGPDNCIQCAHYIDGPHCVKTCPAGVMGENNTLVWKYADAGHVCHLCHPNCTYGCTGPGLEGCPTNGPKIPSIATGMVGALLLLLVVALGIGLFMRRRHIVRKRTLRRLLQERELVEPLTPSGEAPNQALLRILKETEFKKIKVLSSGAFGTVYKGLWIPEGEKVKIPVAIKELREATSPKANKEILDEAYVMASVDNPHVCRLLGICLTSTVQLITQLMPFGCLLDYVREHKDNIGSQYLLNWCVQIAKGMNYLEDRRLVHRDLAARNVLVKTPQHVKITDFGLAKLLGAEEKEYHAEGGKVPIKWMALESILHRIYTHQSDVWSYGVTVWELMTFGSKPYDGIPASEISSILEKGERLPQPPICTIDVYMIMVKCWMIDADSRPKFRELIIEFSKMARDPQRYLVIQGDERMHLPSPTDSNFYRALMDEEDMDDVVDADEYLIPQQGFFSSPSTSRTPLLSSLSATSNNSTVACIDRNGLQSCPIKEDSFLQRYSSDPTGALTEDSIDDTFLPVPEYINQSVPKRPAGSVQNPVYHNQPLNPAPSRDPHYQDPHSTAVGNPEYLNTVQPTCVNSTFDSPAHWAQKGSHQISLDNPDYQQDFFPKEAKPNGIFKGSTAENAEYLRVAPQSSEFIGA
DYRK2, sequence (Q92630 whole entry): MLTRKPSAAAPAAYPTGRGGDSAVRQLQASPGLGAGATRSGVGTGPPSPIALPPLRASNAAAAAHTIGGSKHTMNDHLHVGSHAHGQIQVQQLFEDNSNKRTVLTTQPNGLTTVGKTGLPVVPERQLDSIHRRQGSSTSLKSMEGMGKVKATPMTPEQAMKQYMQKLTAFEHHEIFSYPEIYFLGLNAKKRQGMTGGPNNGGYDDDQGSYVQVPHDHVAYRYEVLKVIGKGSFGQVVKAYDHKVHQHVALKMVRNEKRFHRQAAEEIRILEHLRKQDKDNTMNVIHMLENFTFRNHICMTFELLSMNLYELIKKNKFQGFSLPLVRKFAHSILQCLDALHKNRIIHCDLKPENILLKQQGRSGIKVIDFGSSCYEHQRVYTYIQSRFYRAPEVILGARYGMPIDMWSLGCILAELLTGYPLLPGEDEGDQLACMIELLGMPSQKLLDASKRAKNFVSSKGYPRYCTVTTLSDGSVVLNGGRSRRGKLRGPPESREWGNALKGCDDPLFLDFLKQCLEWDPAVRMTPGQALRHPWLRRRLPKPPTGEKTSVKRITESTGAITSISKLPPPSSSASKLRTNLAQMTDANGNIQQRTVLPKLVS
T10 sequence (P22607 23-806 G697C): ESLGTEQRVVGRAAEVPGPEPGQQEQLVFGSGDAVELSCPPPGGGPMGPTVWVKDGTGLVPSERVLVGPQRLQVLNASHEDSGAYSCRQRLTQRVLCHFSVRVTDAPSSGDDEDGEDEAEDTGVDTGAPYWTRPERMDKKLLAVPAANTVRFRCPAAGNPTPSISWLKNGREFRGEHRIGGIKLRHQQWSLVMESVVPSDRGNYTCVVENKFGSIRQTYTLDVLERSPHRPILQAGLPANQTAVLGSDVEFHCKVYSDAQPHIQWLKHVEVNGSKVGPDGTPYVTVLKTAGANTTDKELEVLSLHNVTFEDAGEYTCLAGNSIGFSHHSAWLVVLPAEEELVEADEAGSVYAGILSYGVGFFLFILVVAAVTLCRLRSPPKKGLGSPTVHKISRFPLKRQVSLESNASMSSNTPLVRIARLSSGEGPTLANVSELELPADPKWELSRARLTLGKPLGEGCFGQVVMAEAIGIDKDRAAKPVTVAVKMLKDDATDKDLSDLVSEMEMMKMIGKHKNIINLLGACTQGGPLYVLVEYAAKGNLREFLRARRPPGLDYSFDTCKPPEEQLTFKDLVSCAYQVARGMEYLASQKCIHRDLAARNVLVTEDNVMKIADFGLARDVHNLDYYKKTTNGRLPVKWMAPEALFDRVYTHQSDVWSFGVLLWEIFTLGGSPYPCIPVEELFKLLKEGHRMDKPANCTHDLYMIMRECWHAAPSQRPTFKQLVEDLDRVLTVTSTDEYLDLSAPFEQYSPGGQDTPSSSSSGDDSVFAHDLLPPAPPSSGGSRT
PLK1, sequence (P53350 whole entry): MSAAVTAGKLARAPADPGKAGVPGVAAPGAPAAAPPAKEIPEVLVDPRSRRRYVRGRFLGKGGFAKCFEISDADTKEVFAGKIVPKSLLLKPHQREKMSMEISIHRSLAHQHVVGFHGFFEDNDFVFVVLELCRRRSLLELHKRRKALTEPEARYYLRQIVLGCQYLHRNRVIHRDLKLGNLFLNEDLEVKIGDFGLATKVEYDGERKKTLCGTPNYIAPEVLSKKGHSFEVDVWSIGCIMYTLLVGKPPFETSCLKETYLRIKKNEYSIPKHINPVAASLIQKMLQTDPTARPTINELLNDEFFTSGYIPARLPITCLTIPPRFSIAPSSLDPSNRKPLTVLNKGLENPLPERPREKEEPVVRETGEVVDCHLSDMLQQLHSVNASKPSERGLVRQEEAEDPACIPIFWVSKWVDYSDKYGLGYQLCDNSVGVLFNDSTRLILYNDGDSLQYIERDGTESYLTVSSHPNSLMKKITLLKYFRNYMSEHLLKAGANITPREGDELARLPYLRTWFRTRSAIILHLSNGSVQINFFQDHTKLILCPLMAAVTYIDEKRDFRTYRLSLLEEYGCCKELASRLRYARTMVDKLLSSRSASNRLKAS
CAMK1, sequence (Q14012 whole entry): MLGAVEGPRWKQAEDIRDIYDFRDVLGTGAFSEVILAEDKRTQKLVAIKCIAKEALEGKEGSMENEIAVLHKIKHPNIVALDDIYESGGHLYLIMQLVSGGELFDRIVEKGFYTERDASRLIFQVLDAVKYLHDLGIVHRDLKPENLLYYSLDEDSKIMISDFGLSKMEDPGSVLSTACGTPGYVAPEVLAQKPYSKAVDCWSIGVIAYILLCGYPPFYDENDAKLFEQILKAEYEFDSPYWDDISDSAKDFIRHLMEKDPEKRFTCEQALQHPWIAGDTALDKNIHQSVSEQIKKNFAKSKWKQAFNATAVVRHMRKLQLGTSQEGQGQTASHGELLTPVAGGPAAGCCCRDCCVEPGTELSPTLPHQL
T16 sequence (Q15418 62-321 limits assumed): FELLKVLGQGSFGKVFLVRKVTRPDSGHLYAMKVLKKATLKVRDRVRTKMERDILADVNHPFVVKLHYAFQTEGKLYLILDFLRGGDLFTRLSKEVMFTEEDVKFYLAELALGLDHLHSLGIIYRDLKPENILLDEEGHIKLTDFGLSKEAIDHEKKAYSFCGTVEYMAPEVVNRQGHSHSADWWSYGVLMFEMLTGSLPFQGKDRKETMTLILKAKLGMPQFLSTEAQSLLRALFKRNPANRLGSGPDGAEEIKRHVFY

## C=CC(=O)Nc1ccc(OC)c(Nc2cc(-c3[nH]c(CC)nc3-c3cccc(NC(=O)c4cccc5c4NC(=O)c4ccccc4N5)c3)ccn2)c1 [Compound 4, N-(3-(5-(2-((5-Acrylamido-2-methoxyphenyl)amino)pyridin-4-yl)-2-ethyl-1H-imidazol-4-yl)phenyl)-11-oxo-10,11-dihydro-5H-dibenzo[b,e][1,4]diazepine-9-carboxamide]
HIPK3
  remaining binding at 1 µM: 100%
PFPK5(P. falciparum)
  remaining binding at 1 µM: 100%
MYO3B
  remaining binding at 1 µM: 31%
PYK2
  remaining binding at 1 µM: 100%
FLT4
  remaining binding at 1 µM: 100%
ADCK3
  remaining binding at 1 µM: 100%
MST1R
  remaining binding at 1 µM: 85%
MAP3K15
  remaining binding at 1 µM: 74%
CAMK1
  remaining binding at 1 µM: 81%
EPHA3
  remaining binding at 1 µM: 81%
DYRK2
  remaining binding at 1 µM: 75%
TIE1
  remaining binding at 1 µM: 100%
ABL2
  remaining binding at 1 µM: 92%
CAMKK2
  remaining binding at 1 µM: 95%
EGFR(G719S)
  remaining binding at 1 µM: 13%
PLK1
  remaining binding at 1 µM: 50%
[1]
  remaining binding at 1 µM: 100%
MAP3K1
  remaining binding at 1 µM: 100%
MST4
  remaining binding at 1 µM: 94%
MARK1
  remaining binding at 1 µM: 92%
FGFR3(G697C)
  remaining binding at 1 µM: 100%
TNIK
  remaining binding at 1 µM: 33%
SLK
  remaining binding at 1 µM: 100%
DLK
  remaining binding at 1 µM: 100%
468 kinases
  S (35) kinome selectivity: 0.084
MARK2
  remaining binding at 1 µM: 85%
[2]
  remaining binding at 1 µM: 75%
EPHB1
  remaining binding at 1 µM: 92%
EPHB4
  remaining binding at 1 µM: 100%
[3]
  remaining binding at 1 µM: 4.7%
VRK2
  remaining binding at 1 µM: 100%
VPS34
  remaining binding at 1 µM: 84%
SRMS
  remaining binding at 1 µM: 61%
